Laboratory results taken from ChEMBL document CHEMBL1201862, “PubChem BioAssay data set” (2004).
Calls of active or inactive are those of the source.

What was measured:
[1] = molecular target: T1, Short transient receptor potential channel 4 (Mus musculus, UniProt Q9QUQ5); experiment: block of DAMGO-driven TRPC4 calcium entry – cell-based, HEK293 TRPC4/mu-opioid, Fluo-4 calcium, dose response (AID 434942); format: functional;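 note: potency of inhibitors blocking the TRPC4 calcium response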
T1 sequence (Q9QUQ5 whole entry): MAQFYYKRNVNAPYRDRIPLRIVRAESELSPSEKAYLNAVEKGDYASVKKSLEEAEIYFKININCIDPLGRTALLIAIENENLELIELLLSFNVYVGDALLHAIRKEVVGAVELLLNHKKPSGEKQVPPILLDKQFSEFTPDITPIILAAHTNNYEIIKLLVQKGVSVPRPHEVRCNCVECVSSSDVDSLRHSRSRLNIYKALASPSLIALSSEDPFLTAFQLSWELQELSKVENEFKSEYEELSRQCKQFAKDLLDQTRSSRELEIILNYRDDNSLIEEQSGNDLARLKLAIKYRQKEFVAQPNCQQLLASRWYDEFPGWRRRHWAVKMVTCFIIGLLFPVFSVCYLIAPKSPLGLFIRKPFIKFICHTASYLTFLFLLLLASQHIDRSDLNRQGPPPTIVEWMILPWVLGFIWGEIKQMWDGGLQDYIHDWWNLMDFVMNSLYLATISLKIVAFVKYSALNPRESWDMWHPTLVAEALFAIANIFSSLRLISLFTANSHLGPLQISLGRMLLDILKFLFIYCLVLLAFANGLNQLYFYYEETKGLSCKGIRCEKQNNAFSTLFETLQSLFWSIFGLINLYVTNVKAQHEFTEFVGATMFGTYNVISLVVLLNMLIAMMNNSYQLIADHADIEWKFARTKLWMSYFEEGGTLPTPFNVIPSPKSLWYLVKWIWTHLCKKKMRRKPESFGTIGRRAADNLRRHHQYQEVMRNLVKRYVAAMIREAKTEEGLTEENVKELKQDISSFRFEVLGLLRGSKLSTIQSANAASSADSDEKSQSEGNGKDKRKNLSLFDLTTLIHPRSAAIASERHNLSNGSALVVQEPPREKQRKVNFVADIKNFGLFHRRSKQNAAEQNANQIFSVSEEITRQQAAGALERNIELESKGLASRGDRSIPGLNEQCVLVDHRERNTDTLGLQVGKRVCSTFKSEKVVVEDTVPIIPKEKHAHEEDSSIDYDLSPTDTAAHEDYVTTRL

[2] = molecular target: Dual specificity tyrosine-phosphorylation-regulated kinase 1A (Rattus norvegicus, UniProt Q63470); format: biochemical, Homo sapiens
[3] = molecular target: T2, Low molecular weight phosphotyrosine protein phosphatase (Homo sapiens, UniProt P24666); format: functional; settings: read-out: IC50_Mean
T2 sequence (P24666 whole entry): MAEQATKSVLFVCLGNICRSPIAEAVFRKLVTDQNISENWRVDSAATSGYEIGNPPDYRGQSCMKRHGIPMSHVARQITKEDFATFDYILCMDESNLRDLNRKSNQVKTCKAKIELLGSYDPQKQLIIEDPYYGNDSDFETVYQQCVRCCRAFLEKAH

[4] = molecular target: T2, Low molecular weight phosphotyrosine protein phosphatase; format: functional; settings: read-out: IC50_Mean; remark: listed apart in the source
[5] = molecular target: T3, Tyrosine-protein phosphatase non-receptor type 22 (Homo sapiens, UniProt Q9Y2R2); experiment: PTPN22 enzyme inhibitors – biochemical, fluorescence, LYP catalytic domain, selectivity assay for LMPTP inhibitor project, dose response (AID 652006); format: functional; settings: read-out: IC50_Mean
T3 sequence (Q9Y2R2 whole entry): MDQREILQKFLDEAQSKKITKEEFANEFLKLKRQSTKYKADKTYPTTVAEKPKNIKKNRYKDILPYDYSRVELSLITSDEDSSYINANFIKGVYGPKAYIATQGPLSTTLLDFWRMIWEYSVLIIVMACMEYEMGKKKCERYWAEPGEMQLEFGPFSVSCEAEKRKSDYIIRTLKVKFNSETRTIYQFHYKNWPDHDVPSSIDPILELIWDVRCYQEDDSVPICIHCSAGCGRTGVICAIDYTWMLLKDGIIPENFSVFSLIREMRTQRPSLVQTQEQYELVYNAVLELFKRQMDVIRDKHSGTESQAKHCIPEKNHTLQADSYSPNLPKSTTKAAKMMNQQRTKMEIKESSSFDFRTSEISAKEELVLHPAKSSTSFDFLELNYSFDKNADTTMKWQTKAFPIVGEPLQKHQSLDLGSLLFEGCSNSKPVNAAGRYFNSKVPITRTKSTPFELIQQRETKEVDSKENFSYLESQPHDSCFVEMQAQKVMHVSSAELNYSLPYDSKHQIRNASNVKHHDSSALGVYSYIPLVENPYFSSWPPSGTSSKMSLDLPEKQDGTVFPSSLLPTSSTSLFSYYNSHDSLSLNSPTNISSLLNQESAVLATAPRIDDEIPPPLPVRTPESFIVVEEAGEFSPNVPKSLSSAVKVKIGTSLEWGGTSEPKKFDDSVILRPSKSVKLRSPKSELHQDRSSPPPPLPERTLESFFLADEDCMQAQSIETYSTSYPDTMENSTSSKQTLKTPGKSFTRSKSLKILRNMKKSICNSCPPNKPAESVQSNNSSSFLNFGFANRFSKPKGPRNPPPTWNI

[6] = molecular target: T4, Coagulation factor XII (Homo sapiens, UniProt P00748); format: functional;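 note: activated factor XIIa alpha cleaving a fluorogenic AMC peptide substrate; inhibitor potency from loss of enzyme activity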
T4 sequence (P00748 whole entry): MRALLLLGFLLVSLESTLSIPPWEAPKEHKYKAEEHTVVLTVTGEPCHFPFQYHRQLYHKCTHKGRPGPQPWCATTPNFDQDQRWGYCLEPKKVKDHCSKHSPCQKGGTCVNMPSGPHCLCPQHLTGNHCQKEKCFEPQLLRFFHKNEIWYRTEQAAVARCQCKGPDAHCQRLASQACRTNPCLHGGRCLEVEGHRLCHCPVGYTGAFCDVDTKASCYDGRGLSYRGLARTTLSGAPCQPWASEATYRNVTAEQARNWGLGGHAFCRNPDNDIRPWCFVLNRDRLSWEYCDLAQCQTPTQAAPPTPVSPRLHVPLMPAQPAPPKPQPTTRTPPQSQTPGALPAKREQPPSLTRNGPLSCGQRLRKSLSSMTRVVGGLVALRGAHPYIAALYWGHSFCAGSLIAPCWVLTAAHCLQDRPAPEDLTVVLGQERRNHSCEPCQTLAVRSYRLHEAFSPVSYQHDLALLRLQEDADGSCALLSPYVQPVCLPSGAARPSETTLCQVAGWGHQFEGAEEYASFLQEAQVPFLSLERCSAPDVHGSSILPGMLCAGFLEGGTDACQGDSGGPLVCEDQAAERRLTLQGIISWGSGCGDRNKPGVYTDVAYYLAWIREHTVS

[7] = molecular target: DNA dC->dU-editing enzyme APOBEC-3G (Homo sapiens, UniProt Q9HC16); experiment: inhibition of APOBEC3G ssDNA deamination – biochemical, fluorescence, single-stranded DNA substrate, SAR follow-up (AID 602136); format: functional; settings: read-out: IC50_Mean
Chain of DNA dC->dU-editing enzyme APOBEC-3G (Q9HC16 whole entry): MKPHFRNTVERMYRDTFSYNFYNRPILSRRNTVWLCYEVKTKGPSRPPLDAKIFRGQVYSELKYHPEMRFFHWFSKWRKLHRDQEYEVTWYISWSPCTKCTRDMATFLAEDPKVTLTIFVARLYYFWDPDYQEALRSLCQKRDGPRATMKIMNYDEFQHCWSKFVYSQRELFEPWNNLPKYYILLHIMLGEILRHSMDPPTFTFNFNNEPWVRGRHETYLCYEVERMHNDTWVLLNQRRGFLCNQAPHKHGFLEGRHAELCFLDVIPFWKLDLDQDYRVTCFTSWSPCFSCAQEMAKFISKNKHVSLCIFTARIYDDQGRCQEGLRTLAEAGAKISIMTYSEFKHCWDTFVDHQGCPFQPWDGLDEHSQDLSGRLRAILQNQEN

[8] = molecular target: DNA dC->dU-editing enzyme APOBEC-3A (Homo sapiens, UniProt P31941); experiment: SAR analysis of small molecule inhibitors of APOBEC3A DNA Deaminase via a fluorescence-based single-stranded DNA deaminase assay.; format: functional; settings: read-out: IC50_Mean
Chain of DNA dC->dU-editing enzyme APOBEC-3A (P31941 whole entry): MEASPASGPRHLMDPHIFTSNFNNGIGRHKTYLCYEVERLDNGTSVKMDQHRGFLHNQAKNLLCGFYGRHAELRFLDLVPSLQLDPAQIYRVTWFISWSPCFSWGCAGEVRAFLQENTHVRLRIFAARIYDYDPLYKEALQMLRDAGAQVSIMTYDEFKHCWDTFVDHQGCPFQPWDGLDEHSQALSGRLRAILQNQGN

[9] = molecular target: T5, Rac GTPase-activating protein 1 (Homo sapiens, UniProt Q9H0H5); experiment: blockers of MgcRacGAP-driven Rac1 GTP hydrolysis – biochemical, ADP Hunter fluorescence, primary and confirmatory, confirmation (AID 624330); format: functional
T5 sequence (Q9H0H5 whole entry): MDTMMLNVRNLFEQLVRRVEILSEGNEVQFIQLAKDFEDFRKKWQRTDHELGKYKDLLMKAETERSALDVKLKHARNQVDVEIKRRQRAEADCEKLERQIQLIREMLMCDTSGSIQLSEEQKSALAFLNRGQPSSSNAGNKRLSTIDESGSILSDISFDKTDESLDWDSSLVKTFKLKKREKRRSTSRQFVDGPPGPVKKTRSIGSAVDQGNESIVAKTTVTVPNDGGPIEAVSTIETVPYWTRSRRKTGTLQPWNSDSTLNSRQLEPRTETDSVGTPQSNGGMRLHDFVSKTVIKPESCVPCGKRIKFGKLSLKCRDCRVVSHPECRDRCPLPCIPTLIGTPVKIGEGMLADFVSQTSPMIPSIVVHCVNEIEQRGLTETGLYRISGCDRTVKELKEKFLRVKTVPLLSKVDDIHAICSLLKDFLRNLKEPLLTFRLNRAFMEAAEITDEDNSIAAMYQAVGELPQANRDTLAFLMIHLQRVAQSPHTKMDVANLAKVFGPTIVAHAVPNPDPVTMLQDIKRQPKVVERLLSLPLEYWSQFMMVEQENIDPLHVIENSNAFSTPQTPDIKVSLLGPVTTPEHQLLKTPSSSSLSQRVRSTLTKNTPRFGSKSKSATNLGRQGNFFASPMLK

[10] = molecular target: T6, Corticotropin-releasing factor receptor 2/Corticotropin-releasing factor-binding protein (Homo sapiens, UniProt P24387+Q13324); experiment: Dose Response confirmation of uHTS hits for small molecule antagonists of the CRF-binding protein and CRF-R2 receptor complex.; format: functional; settings: read-out: IC50_Mean
T6 sequence (Q13324 whole entry): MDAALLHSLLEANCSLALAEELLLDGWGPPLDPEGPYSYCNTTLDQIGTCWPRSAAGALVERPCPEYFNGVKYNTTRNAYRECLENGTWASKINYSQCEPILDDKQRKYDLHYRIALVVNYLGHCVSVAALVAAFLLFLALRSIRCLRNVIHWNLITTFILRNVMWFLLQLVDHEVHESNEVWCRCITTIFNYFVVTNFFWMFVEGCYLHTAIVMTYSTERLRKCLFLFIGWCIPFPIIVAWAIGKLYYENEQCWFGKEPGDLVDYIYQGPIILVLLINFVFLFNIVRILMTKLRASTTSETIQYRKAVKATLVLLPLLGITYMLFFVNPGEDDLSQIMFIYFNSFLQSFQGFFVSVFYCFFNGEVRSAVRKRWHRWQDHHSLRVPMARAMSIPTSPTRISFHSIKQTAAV
T6 sequence (P24387 whole entry): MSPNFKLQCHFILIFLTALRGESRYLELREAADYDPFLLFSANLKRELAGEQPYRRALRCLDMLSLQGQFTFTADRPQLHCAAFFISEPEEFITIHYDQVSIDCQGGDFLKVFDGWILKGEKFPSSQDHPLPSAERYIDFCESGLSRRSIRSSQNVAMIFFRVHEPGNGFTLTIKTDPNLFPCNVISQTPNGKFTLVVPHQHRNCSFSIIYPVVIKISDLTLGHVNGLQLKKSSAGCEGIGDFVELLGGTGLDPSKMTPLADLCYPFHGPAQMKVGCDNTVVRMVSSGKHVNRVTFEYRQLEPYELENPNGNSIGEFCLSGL

[11] = molecular target: T6, Corticotropin-releasing factor receptor 2/Corticotropin-releasing factor-binding protein; experiment: activators of CRF receptor 2 with binding protein – uHTS hits, confirmation (AID 602473); format: functional; settings: read-out: EC50_Mean
[12] = blockers of CRF-binding protein–CRF-R2 complex – cell-based, uHTS hits, 384-well, dose response (AID 651639); format: functional, Homo sapiens; settings: read-out: IC50_Mean
[13] = tested on: Vero; experiment: cells; format: functional; settings: Chlorocebus sabaeus
[14] = molecular target: Melanocortin receptor 4 (Homo sapiens, UniProt P32245); experiment: inhibitors of MC4R cAMP signaling – cell-based, TR-FRET, biased antagonists, dose response (AID 602298); format: functional;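 note: antagonist potency against agonist-stimulated cAMP production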
Chain of Melanocortin receptor 4 (P32245 whole entry): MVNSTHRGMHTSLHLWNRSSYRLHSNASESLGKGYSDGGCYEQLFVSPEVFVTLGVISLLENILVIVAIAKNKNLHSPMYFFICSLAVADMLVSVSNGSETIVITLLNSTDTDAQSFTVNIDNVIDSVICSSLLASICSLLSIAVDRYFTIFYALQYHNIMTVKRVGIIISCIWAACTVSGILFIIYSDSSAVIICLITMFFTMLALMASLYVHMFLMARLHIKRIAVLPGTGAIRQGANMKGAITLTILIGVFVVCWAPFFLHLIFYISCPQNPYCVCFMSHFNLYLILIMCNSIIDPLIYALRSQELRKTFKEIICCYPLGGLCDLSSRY

[15] = cAMP pathway inhibition in counterscreen cell line – TR-FRET cAMP detection, counter-screen for MC4R biased antagonist project, dose response (AID 602305); format: functional, cell-based;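 note: U2OS cells stimulated with forskolin near its EC80 as the cAMP inducer; potency is for inhibition of forskolin-stimulated cAMP signaling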
[16] = molecular target: Genome polyprotein (dengue virus type 2, UniProt P29990); experiment: flavivirus cap methylation enzyme inhibition – biochemical, confirmation dose response, primary screen (AID 588689); format: functional
Chain of Genome polyprotein (P29990 2492-3391 limits assumed): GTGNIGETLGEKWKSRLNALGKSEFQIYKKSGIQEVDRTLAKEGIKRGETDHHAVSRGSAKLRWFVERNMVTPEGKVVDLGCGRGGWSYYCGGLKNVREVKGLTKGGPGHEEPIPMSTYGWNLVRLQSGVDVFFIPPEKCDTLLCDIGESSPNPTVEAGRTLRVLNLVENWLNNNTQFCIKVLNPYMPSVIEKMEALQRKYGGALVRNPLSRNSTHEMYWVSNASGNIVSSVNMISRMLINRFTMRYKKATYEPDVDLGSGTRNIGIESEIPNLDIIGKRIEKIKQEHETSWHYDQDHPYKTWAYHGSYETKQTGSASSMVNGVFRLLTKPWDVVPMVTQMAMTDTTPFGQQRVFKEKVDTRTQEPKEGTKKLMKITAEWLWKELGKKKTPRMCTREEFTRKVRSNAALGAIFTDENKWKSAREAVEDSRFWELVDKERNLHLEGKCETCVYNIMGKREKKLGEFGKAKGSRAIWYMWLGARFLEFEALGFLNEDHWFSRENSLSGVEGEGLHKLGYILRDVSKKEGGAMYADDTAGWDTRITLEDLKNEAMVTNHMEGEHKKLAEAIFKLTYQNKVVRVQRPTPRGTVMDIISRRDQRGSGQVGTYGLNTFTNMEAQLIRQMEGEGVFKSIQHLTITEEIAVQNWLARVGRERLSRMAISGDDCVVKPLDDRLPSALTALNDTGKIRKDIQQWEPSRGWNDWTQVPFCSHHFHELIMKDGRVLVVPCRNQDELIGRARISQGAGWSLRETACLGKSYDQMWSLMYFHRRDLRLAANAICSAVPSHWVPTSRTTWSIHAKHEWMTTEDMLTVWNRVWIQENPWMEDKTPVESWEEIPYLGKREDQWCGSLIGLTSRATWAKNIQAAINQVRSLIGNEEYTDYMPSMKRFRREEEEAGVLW

[17] = molecular target: T7, Polyadenylate-binding protein 1 (Homo sapiens, UniProt P11940); experiment: MLLE binding blockers, Cy5 peptide tracer – biochemical, fluorescence polarization, Cy5-PAM2 peptide, secondary, miRNA deadenylation inhibitor project, dose response (AID 602260); format: functional; settings: read-out: IC50_Mean
T7 sequence (P11940 whole entry): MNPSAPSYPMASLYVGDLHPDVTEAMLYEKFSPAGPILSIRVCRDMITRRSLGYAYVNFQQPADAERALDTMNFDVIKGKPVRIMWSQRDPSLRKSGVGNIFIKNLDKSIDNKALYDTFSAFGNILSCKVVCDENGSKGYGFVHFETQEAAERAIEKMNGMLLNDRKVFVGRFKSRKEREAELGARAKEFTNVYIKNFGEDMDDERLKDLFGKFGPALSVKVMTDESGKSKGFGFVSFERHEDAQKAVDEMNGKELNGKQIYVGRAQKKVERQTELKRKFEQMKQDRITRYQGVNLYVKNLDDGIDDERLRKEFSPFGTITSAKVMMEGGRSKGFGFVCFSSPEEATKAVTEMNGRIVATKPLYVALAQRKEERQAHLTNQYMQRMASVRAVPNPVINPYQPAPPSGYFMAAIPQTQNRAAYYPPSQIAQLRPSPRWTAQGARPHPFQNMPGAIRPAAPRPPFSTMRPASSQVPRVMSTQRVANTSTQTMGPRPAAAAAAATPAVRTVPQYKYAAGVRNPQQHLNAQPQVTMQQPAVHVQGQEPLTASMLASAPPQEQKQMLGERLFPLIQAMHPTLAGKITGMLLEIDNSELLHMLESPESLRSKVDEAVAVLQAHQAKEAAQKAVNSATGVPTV

[18] = molecular target: Mitochondrial peptide methionine sulfoxide reductase (Bos taurus, UniProt P54149); experiment: Absorbance-based biochemical high throughput dose response assay for activators of Methionine sulfoxide reductase A (MsrA).; format: functional
Chain of Mitochondrial peptide methionine sulfoxide reductase (P54149 whole entry, the tested form may be a part): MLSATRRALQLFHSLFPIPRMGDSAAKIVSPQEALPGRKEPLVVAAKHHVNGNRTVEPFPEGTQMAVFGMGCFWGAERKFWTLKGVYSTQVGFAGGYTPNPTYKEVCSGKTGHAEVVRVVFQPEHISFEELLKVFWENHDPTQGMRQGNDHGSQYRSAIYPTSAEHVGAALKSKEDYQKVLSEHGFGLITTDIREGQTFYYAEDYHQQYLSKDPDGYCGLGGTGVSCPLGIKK

[19] = molecular target: T7, Polyadenylate-binding protein 1; experiment: MLLE domain peptide-binding blockers, IC50 – biochemical, fluorescence polarization, FITC-PAM2 peptide, dose response (AID 602259); format: functional; settings: read-out: IC50_Mean
[20] = THP-1 cell cytotoxicity, cytotoxicity control, set 4 (AID 504911); format: functional; settings: Mycobacterium tuberculosis
[21] = molecular target: T8, Probable nicotinate-nucleotide adenylyltransferase (Staphylococcus aureus (strain N315), UniProt P65502); format: functional, Staphylococcus aureus subsp. aureus N315;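 for IC50 Mean: confirmatory dose-response retesting of NadD inhibitor hits first found in an ultra-high-throughput screen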
T8 sequence (P65502 whole entry): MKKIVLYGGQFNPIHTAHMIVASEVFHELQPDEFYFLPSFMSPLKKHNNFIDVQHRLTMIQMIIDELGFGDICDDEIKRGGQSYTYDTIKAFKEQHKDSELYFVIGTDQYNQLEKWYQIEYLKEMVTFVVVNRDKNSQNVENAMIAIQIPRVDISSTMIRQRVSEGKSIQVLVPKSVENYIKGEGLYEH

[22] = molecular target: T8, Probable nicotinate-nucleotide adenylyltransferase; format: functional, Staphylococcus aureus subsp. aureus N315; settings: read-out: IC50_Mean
[23] = molecular target: Cytochrome P450 3A4 (Homo sapiens, UniProt P08684); settings: Potency;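 note: confirmatory qHTS run detecting inhibitors and substrates of CYP3A4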
Chain of Cytochrome P450 3A4 (P08684 whole entry): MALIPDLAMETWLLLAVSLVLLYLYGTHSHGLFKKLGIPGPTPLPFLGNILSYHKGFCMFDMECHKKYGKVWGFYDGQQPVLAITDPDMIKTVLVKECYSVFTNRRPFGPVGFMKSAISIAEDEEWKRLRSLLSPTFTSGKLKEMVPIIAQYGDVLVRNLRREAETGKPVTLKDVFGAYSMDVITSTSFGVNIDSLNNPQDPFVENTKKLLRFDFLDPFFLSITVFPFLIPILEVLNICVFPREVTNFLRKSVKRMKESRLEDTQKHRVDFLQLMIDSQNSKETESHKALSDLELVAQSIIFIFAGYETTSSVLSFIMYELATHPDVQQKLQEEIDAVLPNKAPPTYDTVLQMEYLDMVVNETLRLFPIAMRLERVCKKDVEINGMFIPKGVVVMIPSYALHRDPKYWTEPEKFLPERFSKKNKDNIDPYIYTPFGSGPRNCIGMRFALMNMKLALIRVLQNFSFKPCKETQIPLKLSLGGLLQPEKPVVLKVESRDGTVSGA

[24] = molecular target: Aryl hydrocarbon receptor (Homo sapiens, UniProt P35869); settings: Potency;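 note: confirmatory quantitative high-throughput screen measuring activation of the AhR signaling pathway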
Chain of Aryl hydrocarbon receptor (P35869 whole entry): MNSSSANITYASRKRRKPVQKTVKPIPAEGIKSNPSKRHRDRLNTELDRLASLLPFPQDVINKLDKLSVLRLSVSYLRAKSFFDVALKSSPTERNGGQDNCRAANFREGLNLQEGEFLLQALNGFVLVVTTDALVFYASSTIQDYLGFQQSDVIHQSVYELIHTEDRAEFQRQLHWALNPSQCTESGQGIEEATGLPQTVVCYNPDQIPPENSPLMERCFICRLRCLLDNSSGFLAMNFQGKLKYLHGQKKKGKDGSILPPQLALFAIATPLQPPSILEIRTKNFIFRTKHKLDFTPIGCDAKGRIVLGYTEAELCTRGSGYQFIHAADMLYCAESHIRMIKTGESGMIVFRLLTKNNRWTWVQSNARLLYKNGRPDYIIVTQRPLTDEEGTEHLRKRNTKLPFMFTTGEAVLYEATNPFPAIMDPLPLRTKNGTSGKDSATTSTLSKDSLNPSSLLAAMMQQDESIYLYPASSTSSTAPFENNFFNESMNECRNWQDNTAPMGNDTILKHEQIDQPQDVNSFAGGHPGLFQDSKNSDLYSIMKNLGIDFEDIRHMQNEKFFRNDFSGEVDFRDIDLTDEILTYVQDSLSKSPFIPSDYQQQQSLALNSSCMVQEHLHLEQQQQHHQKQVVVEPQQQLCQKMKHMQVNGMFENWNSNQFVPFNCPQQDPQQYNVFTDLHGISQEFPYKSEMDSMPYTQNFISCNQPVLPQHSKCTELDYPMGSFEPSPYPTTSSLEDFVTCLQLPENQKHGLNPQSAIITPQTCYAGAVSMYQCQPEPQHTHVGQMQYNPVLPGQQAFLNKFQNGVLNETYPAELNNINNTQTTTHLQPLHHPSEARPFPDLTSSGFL

Cc1cc(N2CCC(C)CC2)nc2cccc(O)c12
EC50 [1]: 0.335 µM (active) | AC50 [2]: 14.3 µM (active) | IC50 [3]: 9.87 µM (active) | IC50 [4]: 13.2 µM (active) | IC50 [5]: 80 µM (inactive)

O=C(CNCc1ccccn1)Nc1cc(C(F)(F)F)ccc1N1CCOCC1
IC50 [6]: > 50 µM (inactive) | IC50 [7]: > 99 µM (inactive) | IC50 [8]: > 99 µM (inactive) | IC50 [9]: 138 µM (active)

CC(=O)NC(Cc1ccc(C)cc1)C(=O)NC1CCN(c2ncccc2[N+](=O)[O-])CC1 (centres undefined)
IC50 [10]: 2.09 µM (active) | EC50 [11]: > 53 µM (inactive) | IC50 [12]: 5.07 µM (active)

COC(=O)C=C1CCC2C3CCC4=CC(=O)C(Br)CC4(C)C3C(=O)CC12C (centres undefined)
CC50 [13]: > 25 µM (active) | IC50 [14]: > 64.6 µM (inactive) | IC50 [15]: > 64.6 µM (inactive)

O=C1c2ccccc2C(=O)c2c(/C=C/N3CCCCC3)ccnc21
IC50 [16]: 61.6 µM (active) | IC50 [17]: > 66 µM (inactive) | EC50 [18]: > 104 µM (inactive) | IC50 [19]: 50.2 µM (inactive)

COc1cccc(NC(=O)CSc2nc3c(c(=O)[nH]2)CCC3)c1
CC50 [20]: > 100 µM (active)

Nc1[nH]c(C(=O)c2ccccc2)c(-c2ccccc2Br)c1C(=O)NCc1ccc(-c2ccccc2)cc1
IC50 [21]: 26.5 µM (active) | IC50 [22]: 65.9 µM (active)

COc1ccc2nc(N)sc2c1
AC50 [23]: 31.6 µM (inconclusive) | AC50 [24]: 44.7 µM (inconclusive)
